# Measurements published in a melting point compilation (Tetko et al.; mined from patent text by program, amines drawn as free bases though some values may be those of a salt).
row,SMILES,melting point [°C]
1,CCc1c(C(=O)NN2CCCCC2)nc(-c2ccccc2Cl)n1-c1ccc(Cl)cn1,217 to 219
2,Cc1c(-c2ccccc2)c(N2CC[C@H](N(C)C)C2)c2oc(-c3ccccc3O)nc2c1C#N,159 to 162
3,CN(C)c1ccc([N+](=O)[O-])c(C(O)c2ccccc2)c1 (centres undefined),95 to 97
4,CC1(C)Cc2cc(OCC(=O)O)c(Cl)c(Cl)c2C1=O,182
5,Oc1ccc(-c2ccc(F)cc2F)cc1C12CC3CC(CC(C3)C1)C2,146 to 148
6,COc1ccc(C(C)C)c(NC(=O)CN2CCN(CCCSc3nc4c(C)c(Cl)cc(C(C)C)c4o3)CC2)c1C(C)C,126 to 127
7,CC(C)(O)CNc1c([N+](=O)[O-])cnc2cc(Br)cnc12,189 to 190
8,CC(C)(C)c1cc(N2CCCCC2=O)cc(C(C)(C)C)c1O,212 to 214
9,CC/C=C\Cn1c(=S)sc2c(=O)[nH]c(N)nc21,> 320
10,COc1ccccc1N1CCN(CC(O)COc2ccccc2CN)CC1 (centres undefined),113 to 114
11,O=c1[nH]c2ccccc2n1CCN1CCc2c([nH]c3ccccc23)C1,214 to 216
12,CCCc1cc(CO)cc(=O)[nH]1,167
13,CC(C)C(=O)Nc1nn(C)c2c1sc1c(Cl)cccc12,218 to 219
14,CCOC(=O)Oc1ccc(C=CC(=O)NC2CCCNC(=O)C2)cc1 (centres undefined),209 to 210
15,CCCc1c(OCC(O)COc2ccc3c(C)c(CC(=O)O)c(=O)oc3c2)ccc(C(C)=O)c1O (centres undefined),130
16,CNC(=O)c1cccc2cccc(C(=O)Nc3ccc(F)cc3C)c12,249
17,CCC(c1ccccc1)c1n[nH]c2c1c(=O)n(-c1ccccc1)c1ncccc21 (centres undefined),233 to 235
18,CNC(=O)c1cccc(-c2c(C)cc(C)cc2C)c1,143
19,Cc1c(-c2ccccc2)nn(C)c1C(=O)O,161 to 163
20,COc1cc(C(=O)O)ccc1Cc1cn(C)c2ccc(C(=O)NC[C@H](C)CC(F)(F)F)cc12,218 to 223
21,O=C1c2ccccc2C(=O)N1CC(=O)N(CC(=O)n1ccnc1)c1ccccc1,206
22,COc1cc(Nc2c(C#N)cnc3cc(-c4csc(CN5CCOCC5)c4)ccc23)c(Cl)cc1C,168 to 170
23,COc1ccc(-c2nc(C)n(CCC(C)(C)NCC(O)c3ccc(O)c(CO)c3)n2)cc1 (centres undefined),110 to 116

row,SMILES,melting point [°C]
1,CCN(CC)c1nc2n(n1)Cc1ccccc1-2,234 to 236
2,O=C(CBr)c1ccc(O)c(CO)c1,117 to 119
3,CNC(=O)CN1CCc2cc(Nc3ncc(Cl)c(N[C@@H]4CCCC[C@H]4NS(C)(=O)=O)n3)c(OC)cc2CC1,92 to 104
4,O=S(=O)(c1ccccc1)c1c[nH]c2ccc(Br)cc12,176 to 178
5,CC(C)(C)c1ccc(S(=O)(=O)Nc2ccc(-c3cn(C4CCCC4)c4ncnc(N)c34)cc2O)cc1,278 to 280
6,Cc1c(Cl)cc(C(=O)O)c(Cl)c1[N+](=O)[O-],210 to 218
7,C=C1CC2(C)C(CCC2(C)O)C2CCC3=CC(=O)CCC3(C)C12 (centres undefined),155 to 157
8,COC(=O)c1ccccc1Nc1cccc(C(C)N(O)C(C)=O)c1Cl (centres undefined),171 to 172
9,COc1ccc(-c2cccc(COCCc3cccc(NC(N)=O)c3)c2)cc1,87 to 89
10,COc1cc(OCc2ccccn2)ccc1/C=C/c1cc(/C=C/c2ccc3[nH]nnc3c2)n[nH]1,113 to 120
11,COc1ccc(C(=O)Nc2c(Cl)cc(N)cc2Cl)cc1OC1CCCC1,170 to 172
12,CCCCOC1C=CC(=O)N1S(=O)(=O)c1cccs1 (centres undefined),56 to 57
13,CS(=O)(=O)Cc1cccc(C(F)(F)F)c1[N+](=O)[O-],110 to 113
14,Cc1cn(-c2cccc(C(=O)CC(=O)Nc3cc(-c4ccccc4F)ccc3NC(=O)OC(C)(C)C)c2)c(C)n1,145
15,COC(=O)[C@@H]1C[C@H](NC(C)=O)C(=O)[C@H]2[C@@]1(C)CC[C@H]1C(=O)O[C@H](c3ccoc3)C[C@]21C,222 to 224
16,COc1ccccc1Oc1c(NS(=O)(=O)c2ccc(C(C)(C)C)cc2)nc(-c2ncccn2)nc1OCCOc1ccc(C(C)=O)cc1,169 to 172
17,Cc1oc(-c2ccccc2)nc1COc1ccc(C(=O)c2ccccc2O)cc1,121 to 122
18,Oc1ccc(CCNc2ncnc3scnc23)c(F)c1,193
19,CN1NC(=O)CSC1=Nc1ccc(Cl)c(Cl)c1,118 to 120
20,Cc1noc(NS(=O)(=O)c2ccccc2-c2ccc(-c3ncco3)cc2CN(C)C(=O)c2ccccc2Cl)c1C,125 to 135
21,O=C(O)CCCCCCc1ncsc1C(=O)O,151 to 153
22,CCC1CCCCN1CCNc1ccnc2cc(Cl)ccc12 (racemic),115 to 117
23,Nc1ccc(C#Cc2ccc(C#Cc3ccccc3)cc2[N+](=O)[O-])cc1,166 to 168

row,SMILES,melting point [°C]
1,CC(C)CN(CC(O)C(Cc1ccccc1)NC(=O)C(CC(N)=O)NC(=O)NCc1ccccc1)C(=O)NC(C)(C)C (centres undefined),164 to 166
2,Cn1c(CCNC2CCN(Cc3ccccc3)CC2)cc2ccccc21,72 to 73
3,C/C=C/c1cc(OC)c2oc(-c3ccc(O)c(OC)c3)c(C)c2c1,132 to 133
4,Cc1nc(-c2cccc(-c3nc4sccn4c3-c3ccnc(N[C@@H]4CCCNC4)n3)c2)no1,203 to 207
5,NC(=S)C(F)(F)C[C@H]1CN(c2ccc(C3C=CS(=O)(=O)CC3)cc2)C(=O)O1 (some centres undefined),139 to 140
6,O=c1[nH]c2ncc(-c3cn[nH]c3)nc2n1CC1CCOCC1,238 to 240
7,COc1ccc(C2=C(C=O)CCc3cc(OC)ccc32)cc1,104 to 105
8,COc1ccc(COCc2ccc(OC)cc2)cc1,58 to 59
9,CCOC(=O)Cc1cc2c(s1)CCN(C(=O)[C@H](Cc1ccccc1)NC(=O)c1ccc(C(=N)N)cc1)C2,173 to 175
10,N#Cc1ccc(Nc2nc(Oc3c(Br)cc(C=O)cc3Br)ccc2[N+](=O)[O-])cc1,218 to 220
11,CCOC(=O)Cc1csc(-c2ncccc2O)n1,85.5 to 86.5
12,CC1Cc2cc(S(N)(=O)=O)cc(C(=O)NCC3CCCN3Cc3ccccc3)c2O1 (centres undefined),161 to 167
13,CCOc1ccc(CCNC(=O)C(N)=O)cc1OCC,168 to 169
14,COc1cc(-c2nc(C)c(C(=O)NN)s2)cc(OC)c1OC,180 to 181
15,CC(c1ccccc1)c1cc2c(=O)[nH]c(N)nc2s1 (centres undefined),260 to 270
16,ClCCCOc1ccc(Cl)cc1,35 to 36
17,Fc1nc(/C=C/c2ccccc2)cn1C(c1ccccc1)(c1ccccc1)c1ccccc1,167 to 170
18,CCOC(=O)c1cc2ccc(C)c(Cl)c2[nH]1,73 to 75
19,CS(=O)(=O)NC(=O)NCCCc1ccc2c(NC(=O)CC3CCCCC3)c(Cl)ccc2n1,151 to 152
20,COc1cc2c(cc1OC)C1=C(C#N)SCCC(=O)N1CC2,192 to 194
21,O=C(O)Cc1ccc(NC(=O)C=C2CC(C(=O)O)Nc3cc(Cl)cc(Cl)c32)cc1 (racemic),> 220
22,O=C(NC(Cc1ccccc1)C(=O)O)c1ccc2cc(NCc3ccccc3)ccc2c1 (centres undefined),172
23,COC(=O)CC(C)C1CCC2C3CC=C4CC(O)CC(O)C4(C)C3CCC12C (centres undefined),144 to 146
